Assay results taken from ChEMBL document CHEMBL2380302, “Synthesis of 3-O-propargylated betulinic acid and its 1,2,3-triazoles as potential apoptotic agents” (Eur J Med Chem, 2013).

How the values were obtained:
[1] = system: SF-295; assay: Cytotoxicity against human SF295 cells at 50 uM after 48 hrs by SRB assay; assay type: functional; details: SF-295, 48 h, read-out: GI
[2] = system: HEp-2; assay: Cytotoxicity against human Hep2 cells at 10 uM after 48 hrs by SRB assay; assay type: functional; details: HEp-2, 48 h, read-out: GI
[3] = system: DU-145; assay: Cytotoxicity against human DU145 cells at 30 uM after 48 hrs by SRB assay; assay type: functional; details: DU-145, 48 h, read-out: GI
[4] = system: MCF7; assay: Cytotoxicity against human MCF7 cells at 10 uM after 48 hrs by SRB assay; assay type: functional; details: MCF7, 48 h, read-out: GI
[5] = system: THP-1; assay: Cytotoxicity against human THP1 cells after 48 hrs by SRB assay; assay type: functional, cell-based; details: THP-1, 48 h
[6] = system: THP-1; assay: Cytotoxicity against human THP1 cells at 10 uM after 48 hrs by SRB assay; assay type: functional; details: THP-1, 48 h, read-out: GI
[7] = system: PC-3; assay: Cytotoxicity against human PC3 cells at 10 uM after 48 hrs by SRB assay; assay type: functional; details: PC-3, 48 h, read-out: GI
[8] = system: SF-295; assay: Cytotoxicity against human SF295 cells at 30 uM after 48 hrs by SRB assay; assay type: functional; details: SF-295, 48 h, read-out: GI
[9] = system: HCT-15; assay: Cytotoxicity against human HCT15 cells after 48 hrs by SRB assay; assay type: functional, cell-based; details: HCT-15, 48 h
[10] = system: THP-1; assay: Cytotoxicity against human THP1 cells at 30 uM after 48 hrs by SRB assay; assay type: functional; details: THP-1, 48 h, read-out: GI
[11] = system: HCT-15; assay: Cytotoxicity against human HCT15 cells at 50 uM after 48 hrs by SRB assay; assay type: functional; details: HCT-15, 48 h, read-out: GI
[12] = system: DU-145; assay: Cytotoxicity against human DU145 cells after 48 hrs by SRB assay; assay type: functional, cell-based; details: DU-145, 48 h
[13] = system: HL-60; assay: Cytotoxicity against human HL60 cells at 10 uM after 48 hrs by SRB assay; assay type: functional; details: HL-60, 48 h, read-out: GI
[14] = system: MCF7; assay: Cytotoxicity against human MCF7 cells at 50 uM after 48 hrs by SRB assay; assay type: functional; details: MCF7, 48 h, read-out: GI
[15] = system: HCT-15; assay: Cytotoxicity against human HCT15 cells at 30 uM after 48 hrs by SRB assay; assay type: functional; details: HCT-15, 48 h, read-out: GI
[16] = system: PC-3; assay: Cytotoxicity against human PC3 cells after 48 hrs by SRB assay; assay type: functional, cell-based; details: PC-3, 48 h
[17] = system: SF-295; assay: Cytotoxicity against human SF295 cells after 48 hrs by SRB assay; assay type: functional, cell-based; details: SF-295, 48 h
[18] = system: THP-1; assay: Cytotoxicity against human THP1 cells at 50 uM after 48 hrs by SRB assay; assay type: functional; details: THP-1, 48 h, read-out: GI
[19] = system: MCF7; assay: Cytotoxicity against human MCF7 cells after 48 hrs by SRB assay; assay type: functional, cell-based; details: MCF7, 48 h
[20] = system: PC-3; assay: Cytotoxicity against human PC3 cells at 50 uM after 48 hrs by SRB assay; assay type: functional; details: PC-3, 48 h, read-out: GI
[21] = system: DU-145; assay: Cytotoxicity against human DU145 cells at 10 uM after 48 hrs by SRB assay; assay type: functional; details: DU-145, 48 h, read-out: GI
[22] = system: HL-60; assay: Cytotoxicity against human HL60 cells after 48 hrs by SRB assay; assay type: functional, cell-based; details: HL-60, 48 h
[23] = system: HEp-2; assay: Cytotoxicity against human Hep2 cells after 48 hrs by SRB assay; assay type: functional, cell-based; details: HEp-2, 48 h
[24] = system: MCF7; assay: Cytotoxicity against human MCF7 cells at 30 uM after 48 hrs by SRB assay; assay type: functional; details: MCF7, 48 h, read-out: GI
[25] = system: HEp-2; assay: Cytotoxicity against human Hep2 cells at 50 uM after 48 hrs by SRB assay; assay type: functional; details: HEp-2, 48 h, read-out: GI
[26] = system: HCT-15; assay: Cytotoxicity against human HCT15 cells at 10 uM after 48 hrs by SRB assay; assay type: functional; details: HCT-15, 48 h, read-out: GI
[27] = system: SF-295; assay: Cytotoxicity against human SF295 cells at 10 uM after 48 hrs by SRB assay; assay type: functional; details: SF-295, 48 h, read-out: GI
[28] = system: PC-3; assay: Cytotoxicity against human PC3 cells at 30 uM after 48 hrs by SRB assay; assay type: functional; details: PC-3, 48 h, read-out: GI
[29] = system: HL-60; assay: Cytotoxicity against human HL60 cells at 50 uM after 48 hrs by SRB assay; assay type: functional; details: HL-60, 48 h, read-out: GI
[30] = system: A549; assay: Cytotoxicity against human A549 cells at 30 uM after 48 hrs by SRB assay; assay type: functional; details: A549, 48 h, read-out: GI
[31] = system: HEp-2; assay: Cytotoxicity against human Hep2 cells at 30 uM after 48 hrs by SRB assay; assay type: functional; details: HEp-2, 48 h, read-out: GI
[32] = system: DU-145; assay: Cytotoxicity against human DU145 cells at 50 uM after 48 hrs by SRB assay; assay type: functional; details: DU-145, 48 h, read-out: GI
[33] = system: HL-60; assay: Cytotoxicity against human HL60 cells at 30 uM after 48 hrs by SRB assay; assay type: functional; details: HL-60, 48 h, read-out: GI
[34] = system: A549; assay: Cytotoxicity against human A549 cells after 48 hrs by SRB assay; assay type: functional, cell-based; details: A549, 48 h
[35] = system: A549; assay: Cytotoxicity against human A549 cells at 10 uM after 48 hrs by SRB assay; assay type: functional; details: A549, 48 h, read-out: GI
[36] = system: A549; assay: Cytotoxicity against human A549 cells at 50 uM after 48 hrs by SRB assay; assay type: functional; details: A549, 48 h, read-out: GI

Row | Structure (SMILES) | inhibition of growth at 50 µM [1] [%] | inhibition of growth at 10 µM [2] [%] | inhibition of growth at 30 µM [3] [%] | inhibition of growth at 10 µM [4] [%] | IC50 [5] [µM] | inhibition of growth at 10 µM [6] [%] | inhibition of growth at 10 µM [7] [%] | inhibition of growth at 30 µM [8] [%] | IC50 [9] [µM] | inhibition of growth at 30 µM [10] [%] | inhibition of growth at 50 µM [11] [%] | IC50 [12] [µM] | inhibition of growth at 10 µM [13] [%] | inhibition of growth at 50 µM [14] [%] | inhibition of growth at 30 µM [15] [%] | IC50 [16] [µM] | IC50 [17] [µM] | inhibition of growth at 50 µM [18] [%] | IC50 [19] [µM] | inhibition of growth at 50 µM [20] [%] | other results
1 | C=C(C)[C@@H]1CC[C@]2(C(=O)O)CC[C@]3(C)[C@H](CC[C@@H]4[C@@]5(C)CC[C@H](OCc6cn(-c7cccc(CO)c7)nn6)C(C)(C)[C@@H]5CC[C@]43C)[C@@H]12 | 47 | 51 | 52 | 36 | 10 | 50 | 4 | 37 | 25 | 91 | 71 | 23 | 53 | 75 | 70 | 50 | 53 | 93 | 17 | 49 | inhibition of growth at 10 µM [21]: 43%; IC50 [22]: 7 µM; IC50 [23]: 8 µM; inhibition of growth at 30 µM [24]: 71%; inhibition of growth at 50 µM [25]: 78%; inhibition of growth at 10 µM [26]: 11%; inhibition of growth at 10 µM [27]: 27%; inhibition of growth at 30 µM [28]: 29%; inhibition of growth at 50 µM [29]: 95%; inhibition of growth at 30 µM [30]: 45%; inhibition of growth at 30 µM [31]: 74%; inhibition of growth at 50 µM [32]: 65%; inhibition of growth at 30 µM [33]: 93%; IC50 [34]: 32 µM; inhibition of growth at 10 µM [35]: 43%; inhibition of growth at 50 µM [36]: 67%
2 | C=C(C)[C@@H]1CC[C@]2(C(=O)O)CC[C@]3(C)[C@H](CC[C@@H]4[C@@]5(C)CC[C@H](OCc6cn(C7O[C@H](COC(C)=O)[C@H](OC(C)=O)[C@H](OC(C)=O)[C@H]7OC(C)=O)nn6)C(C)(C)[C@@H]5CC[C@]43C)[C@@H]12 (stereo not given in full) | 39 | 25 | 20 | 35 | 50 | 50 | 5 | 20 | 28 | 61 | 63 | > 50 | 62 | 52 | 51 | > 50 | > 50 | 72 | 45 | 40 | inhibition of growth at 10 µM [21]: 8%; IC50 [22]: 5.5 µM; IC50 [23]: 40 µM; inhibition of growth at 30 µM [24]: 44%; inhibition of growth at 50 µM [25]: 58%; inhibition of growth at 10 µM [26]: 39%; inhibition of growth at 10 µM [27]: 8%; inhibition of growth at 30 µM [28]: 32%; inhibition of growth at 50 µM [29]: 74%; inhibition of growth at 30 µM [30]: 10%; inhibition of growth at 30 µM [31]: 41%; inhibition of growth at 50 µM [32]: 36%; inhibition of growth at 30 µM [33]: 66%; IC50 [34]: > 50 µM; inhibition of growth at 10 µM [35]: 6%; inhibition of growth at 50 µM [36]: 37%
3 | C=C(C)[C@@H]1CC[C@]2(C(=O)O)CC[C@]3(C)[C@H](CC[C@@H]4[C@@]5(C)CC[C@H](OCc6cn(-c7cc(C)cc(O)c7)nn6)C(C)(C)[C@@H]5CC[C@]43C)[C@@H]12 | 90 | 9 | 51 | 70 | 18 | 15 | 47 | 75 | 26 | 85 | 66 | 28 | 24 | 96 | 56 | 13 | 19 | 99 | 3.8 | 91 | inhibition of growth at 10 µM [21]: 10%; IC50 [22]: 14 µM; IC50 [23]: > 50 µM; inhibition of growth at 30 µM [24]: 96%; inhibition of growth at 50 µM [25]: 42%; inhibition of growth at 10 µM [26]: 28%; inhibition of growth at 10 µM [27]: 23%; inhibition of growth at 30 µM [28]: 74%; inhibition of growth at 50 µM [29]: 98%; inhibition of growth at 30 µM [30]: 59%; inhibition of growth at 30 µM [31]: 25%; inhibition of growth at 50 µM [32]: 97%; inhibition of growth at 30 µM [33]: 90%; IC50 [34]: 26 µM; inhibition of growth at 10 µM [35]: 23%; inhibition of growth at 50 µM [36]: 71%
4 | C=C(C)[C@@H]1CC[C@]2(C(=O)O)CC[C@]3(C)[C@H](CC[C@@H]4[C@@]5(C)CC[C@H](OCc6cn(-c7ccc(OC)cc7)nn6)C(C)(C)[C@@H]5CC[C@]43C)[C@@H]12 | 59 | 41 | 37 | 44 | 10 | 50 | 5 | 46 | 8 | 77 | 57 | 48 | 54 | 93 | 55 | 49 | 44 | 97 | 14 | 52 | inhibition of growth at 10 µM [21]: 35%; IC50 [22]: 8 µM; IC50 [23]: 23 µM; inhibition of growth at 30 µM [24]: 62%; inhibition of growth at 50 µM [25]: 74%; inhibition of growth at 10 µM [26]: 55%; inhibition of growth at 10 µM [27]: 20%; inhibition of growth at 30 µM [28]: 8%; inhibition of growth at 50 µM [29]: 99%; inhibition of growth at 30 µM [30]: 40%; inhibition of growth at 30 µM [31]: 54%; inhibition of growth at 50 µM [32]: 53%; inhibition of growth at 30 µM [33]: 82%; IC50 [34]: 50 µM; inhibition of growth at 10 µM [35]: 38%; inhibition of growth at 50 µM [36]: 51%
5 | C=C(C)[C@@H]1CC[C@]2(C(=O)O)CC[C@]3(C)[C@H](CC[C@@H]4[C@@]5(C)CC[C@H](OCc6cn(-c7ccc(Cl)cc7)nn6)C(C)(C)[C@@H]5CC[C@]43C)[C@@H]12 | 32 | 28 | 43 | 42 | 10 | 50 | 22 | 20 | 13 | 69 | 66 | 34 | 61 | 80 | 53 | 43 | > 50 | 94 | 15 | 53 | inhibition of growth at 10 µM [21]: 28%; IC50 [22]: 5.5 µM; IC50 [23]: 44 µM; inhibition of growth at 30 µM [24]: 63%; inhibition of growth at 50 µM [25]: 55%; inhibition of growth at 10 µM [26]: 46%; inhibition of growth at 10 µM [27]: 5%; inhibition of growth at 30 µM [28]: 40%; inhibition of growth at 50 µM [29]: 96%; inhibition of growth at 30 µM [30]: 59%; inhibition of growth at 30 µM [31]: 43%; inhibition of growth at 50 µM [32]: 55%; inhibition of growth at 30 µM [33]: 74%; IC50 [34]: 8 µM; inhibition of growth at 10 µM [35]: 52%; inhibition of growth at 50 µM [36]: 83%
